{"source": "patent US12241890B2", "about": "“Methods for generating barcoded nucleic acid molecules using fixed cells” (10X Genomics, Inc., priority 2019, dated 2025)", "key": {"[1]": {"tested_on": "PFA-fixed PBMCs", "assay": "Bulk un-fixing of PFA-fixed PBMCs, bulk RNA isolation and bulk RNA sequencing (Example 1)", "format": "cell-based", "conditions": "4% PFA-fixed PBMCs, 50 mM un-fixing agent, 0.2% SDS, 10 mU/mL Proteinase K, 40° C. 2 h; for complexity of the transcriptomic library relative to no treatment of the fixed PBMCs (FIG. 8): estimated with Preseq", "procedure": "Un-fixing agent solutions: the un-fixing agent of compounds (1), (4), (8), and (11) were each formulated in 30 mmol Tris buffer, pH 6.8 to a target concentration of 80 mM and the pH was adjusted to pH 6.5 using 2M NaOH. The final formulation was filtered through a 0.2 μm nylon syringe filter before addition into final composition of 50 mM of the un-fixing agent compound, 0.2% SDS, 10 mU/mL of Proteinase K and 0.2 U/mL RNAse inhibitor in 30 mM Tris, pH 6.8.\nBulk Un-fixing: PBMCs were fixed with 4% PFA for 24 h at 4° C. and quenched with 10% Fetal Bovine Serum (“FBS”) in PBS. The PFA-fixed PBMCs were treated with an un-fixing agent solution of compounds (1), (4), (8), or (11) formulated as described above at 40° C. for 2 h. Three different control samples also were prepared without un-fixing agent added: (1) fresh PBMCs (“Fresh Pellet” control); (2) PBMCs fixed with 4% PFA for 24 h then treated with 0.2% SDS, 10 mU/mL Proteinase K, and 0.2 U/mL RNAse inhibitor in 30 mM Tris, pH 6.8 at 40° C. for 2 h (“Fixed+PK, No UF agt.” control); and (3) PBMCs fixed with 4% PFA for 24 h (“fixed no un-fixing agent” control).\nBulk RNA isolation: After the bulk un-fixing treatment of the PFA-fixed PBMCs, the resulting treated (and control) samples were centrifuged at 450 g for 5 min and pellet as well as supernatant were collected. RNA isolation from collected pellets and supernatants was performed using RNeasy Plus Mini Kit (Qiagen, Cat #_74134) and RNeasy MinElute Cleanup Kit (Qiagen, Cat #74204), respectively. Isolated RNA was quantified using Qubit™ RNA HS Assay Kit (Invitrogen, Cat #Q32855) and Agilent RNA ScreenTape System (Agilent Technologies).\nBulk RNA sequencing: RNA could not be isolated from the “fixed no un-fixing agent” control sample. […] The “Fresh Pellet” control data was obtained by sequencing following bulk RNA isolation using the Qiagen kit without performing the 10× Genomics Single Cell 3′V3 protocol described below. For the four un-fixing agent treated samples and the remaining control samples described above, cDNA amplification was performed using an equivalent of 10 ng RNA. Post cDNA amplification, library prep was performed according to the 10× Genomics Single Cell 3′V3 protocol (10× Genomics, Pleasanton, CA, USA). A 3000-cell load of fresh PBMCs was used as a single cell reference (“Fresh SC3P”) and library prep was performed using Single Cell 3′V3 protocol (10× Genomics, Pleasanton, CA, USA). The final libraries were sequenced to between 25 and 100 million reads on a NovaSeq 6000 sequencer (Illumina Inc., San Diego, CA, USA). Bulk library complexity was estimated using the software package Preseq, as described by Daley and Smith (see e.g., Daley and Smith, “Predicting the molecular complexity of sequencing libraries,” Nature Methods 10:325-327, 2013). Library complexity as used here refers to the estimated number of unique RNA molecules aligned properly to the transcriptome (i.e., reads considered to be informative and used for gene expression counting) as a function of all sequenced reads. Gene expression counts were down-sampled across libraries to match the lowest sequencing depth and pairwise gene expression correlations were computed as the Pearson correlation (R^2) of gene expression counts between samples. When comparing gene expression data from control, unfixed PBMCs, gene expression counts were summed across cells to produce pseudo-bulk gene expression counts, as is customary in commercial gene expression analysis software (e.g., 10× Genomics, Pleasanton, CA, USA)."}, "[2]": {"tested_on": "PFA-fixed Jurkats", "assay": "Bulk un-fixing of PFA-fixed Jurkats with proline analog un-fixing agents and cold-active protease, RNA yield (Example 10)", "format": "cell-based", "conditions": "4% PFA-fixed Jurkats; 100 mM un-fixing agent, 10 U/mL ArcticZymes Proteinase where present; 14-25° C. 90 min then 80° C. 15 min", "procedure": "B. Un-fixing agent stock solutions: the proline analog un-fixing agents of compounds (12), (13), (14), and (15) were each formulated in 50 mmol Tris buffer, pH 8.3 to a target concentration of 300 mM and the pH was adjusted to pH 8.3 using 2M NaOH. The final formulation was filtered through a 0.2 μm nylon syringe filter before addition into final composition of 100 mM of the un-fixing agent compound, 10 U/mL ArcticZymes Proteinase and 0.2 U/mL RNAse inhibitor in 50 mM Tris, pH 8.3.\nC. Protease stock solution: A stock solution of 10 U/mL of the cold-active protease, ArcticZymes Proteinase (ArcticZymes Technologies ASA, Tromso, Norway) was stored at −20° C.\nD. Bulk un-fixing/protease treatment of fixed cells: Jurkats were fixed with 4% PFA for 24 h at 4° C. and quenched with 10% Fetal Bovine Serum (“FBS”) in PBS. RNAse inhibitor was added to the fixed cell solution together with 10 U/mL of the cold-active protease, ArcticZymes Proteinase, 1 mM of the protease inhibitor, and 100 mM of one of each of the tested un-fixing agents: compound (8), (12), (13), (14), or (15). […]\nE. Bulk RNA isolation: After the bulk un-fixing treatment of the PFA-fixed Jurkats, the resulting samples were centrifuged 5 minutes at 500 g, 4° C., and the supernatant and pellet fractions were collected separately. […] Isolated RNA was quantified using Qubit™ RNA HS Assay Kit (Invitrogen, Cat #Q32855)."}, "[3]": {"tested_on": "RNA treated with formaldehyde", "conditions": "Karmakar et al., Nature Chemistry 7: 752-758 (2015); cited from earlier work"}}, "note": "Entries after “also recorded” stand apart in the source; their conditions may differ.", "data": [{"compound": "Cc1ccc(N)c(S(=O)(=O)O)c1", "note": "[(4), 2-amino-5-methylbenzenesulfonic acid]", "values": [{"measurement": "RNA recovery per read sequenced relative to fixed PBMCs treated only with proteinase K and SDS", "setting": "[1]", "value": "increased RNA recovery per read sequenced"}, {"measurement": "transcriptomic mapping relative to fixed PBMC samples not treated with an un-fixing agent (FIG. 7)", "setting": "[1]", "value": "increased the transcriptomic mapping"}, {"measurement": "complexity of the transcriptomic library relative to no treatment of the fixed PBMCs (FIG. 8)", "setting": "[1]", "value": "higher complexity of the transcriptomic library"}]}, {"compound": "(2-amino-5-{[2-(2-poly-ethoxy)ethyl]carbamoyl} phenyl)phosphonic acid [(11)]", "values": [{"measurement": "transcriptomic mapping relative to fixed PBMC samples not treated with an un-fixing agent (FIG. 7)", "setting": "[1]", "value": "decreased the transcriptomic mapping"}]}, {"compound": "Cc1ccc(N)c(C(=O)O)c1", "note": "[Compound (1), 2-amino-5-methylbenzoic acid]", "values": [{"measurement": "RNA recovery per read sequenced relative to fixed PBMCs treated only with proteinase K and SDS", "setting": "[1]", "value": "increased RNA recovery per read sequenced"}, {"measurement": "recovery of RNA from the fixed biological sample", "setting": "[1]", "value": "highest recovery of RNA"}, {"measurement": "transcriptomic mapping relative to fixed PBMC samples not treated with an un-fixing agent (FIG. 7)", "setting": "[1]", "value": "increased the transcriptomic mapping"}, {"measurement": "complexity of the transcriptomic library relative to no treatment of the fixed PBMCs (FIG. 8)", "setting": "[1]", "value": "higher complexity of the transcriptomic library"}]}, {"compound": "Nc1ccncc1P(=O)(O)O", "note": "[Compound (8), (4-aminopyridin-3-yl)phosphonic acid]", "values": [{"measurement": "transcriptomic mapping relative to fixed PBMC samples not treated with an un-fixing agent (FIG. 7)", "setting": "[1]", "value": "decreased the transcriptomic mapping"}, {"measurement": "complexity of the transcriptomic library relative to no treatment of the fixed PBMCs (FIG. 8)", "setting": "[1]", "value": "higher complexity of the transcriptomic library; also recorded: highest library complexity"}, {"measurement": "Pellet Avg. RNA yield", "setting": "[2]", "value": 54, "unit": "ng"}, {"measurement": "Supernatant Avg. RNA yield", "setting": "[2]", "value": 200, "unit": "ng"}]}, {"compound": "Cc1ccc(N)c(P(=O)(O)O)c1", "note": "[(3), (2-amino-5-methylphenyl)phosphonic acid]", "values": [{"measurement": "breakdown of aminal and hemi-aminal adducts in RNA treated with formaldehyde", "setting": "[3]", "value": "catalytically break down the aminal and hemi-aminal adducts"}]}]}
